{"source": "paper PMC12215950", "about": "(Chemical Science, 2025)", "target": "T1, mitochondrial branched-chain aminotransferase (mBCAT2) (Mus musculus, UniProt O35855)", "T1 sequence (O35855 28-393)": "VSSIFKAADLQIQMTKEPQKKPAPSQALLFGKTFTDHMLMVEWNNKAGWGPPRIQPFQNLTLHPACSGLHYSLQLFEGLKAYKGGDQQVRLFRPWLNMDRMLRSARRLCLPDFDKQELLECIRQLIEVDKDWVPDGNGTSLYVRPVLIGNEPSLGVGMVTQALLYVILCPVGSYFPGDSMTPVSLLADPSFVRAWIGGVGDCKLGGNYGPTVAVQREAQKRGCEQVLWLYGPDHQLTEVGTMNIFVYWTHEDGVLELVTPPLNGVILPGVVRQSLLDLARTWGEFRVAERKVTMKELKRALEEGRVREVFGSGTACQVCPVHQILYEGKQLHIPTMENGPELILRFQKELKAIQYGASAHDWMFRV", "experiment": "LC-MS transamination assay with Michaelis–Menten kinetics", "format": "biochemical", "data": [{"smiles": "C=C(CC(=O)O)C(=O)O", "note": "[ITA, itaconate]", "values": [{"measurement": "Ki", "value": 15.3, "unit": "mM"}]}]}
